Patent publication US7211574B2, “Selective D1/D5 receptor antagonists for the treatment of obesity and CNS disorders” (Schering Corporation, priority 2002, dated 2007)
Read-outs that look alike come from different tables or passages of the source.

How the values were obtained:
[1] = molecular target: T1, human D1 receptor (Homo sapiens, UniProt P21728); experiment: radioligand binding competition assay, D1
T1 construct: expressed in transfected cells; host or cells: Ltk- cells (mouse fibroblast line), membrane preparation
T1 sequence (P21728 whole entry): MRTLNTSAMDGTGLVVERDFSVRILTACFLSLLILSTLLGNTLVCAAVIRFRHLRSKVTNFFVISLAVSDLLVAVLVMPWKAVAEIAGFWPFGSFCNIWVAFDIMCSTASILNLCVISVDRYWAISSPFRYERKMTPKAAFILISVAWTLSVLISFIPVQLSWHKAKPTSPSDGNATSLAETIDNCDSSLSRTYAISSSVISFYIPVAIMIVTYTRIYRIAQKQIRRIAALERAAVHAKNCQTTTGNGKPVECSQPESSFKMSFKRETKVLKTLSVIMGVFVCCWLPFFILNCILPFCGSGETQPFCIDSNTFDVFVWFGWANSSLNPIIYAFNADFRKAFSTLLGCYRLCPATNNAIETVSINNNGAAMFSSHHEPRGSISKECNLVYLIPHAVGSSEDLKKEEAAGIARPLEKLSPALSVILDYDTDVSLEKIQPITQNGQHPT
Experimental: (§1) Affinity values (Ki) of compounds at human D1 and D2 receptors were ascertained using radioligand binding competition assays. Ltk- cells expressing D1 and D2 (long variant) receptors were lysed in hypotonic buffer for membrane preparation. Membranes were incubated with various concentrations of test compound and 1 nM [3H] of a compound of formula III and 0.2 nM [3H] Methylspiperone for D1 and D2 assays, respectively. Non-specific binding was defined as binding in the presence of 10 micromolar of a compound of formula III for D1 assays and 10 micromolar butaclamol for […]. Following incubation to equilibrium (1 hour at room temperature), bound radioligand was separated from free by rapid filtration. Bound radioactivity on the dried filters was quantified by liquid scintillation counting.

[2] = molecular target: T2, human D2 (long variant) receptor (Homo sapiens, UniProt P14416); experiment: radioligand binding competition assay, D2; settings: membranes of Ltk- cells expressing D2 (long variant); 0.2 nM [3H] Methylspiperone; 1 hour at room temperature
T2 construct: expressed in transfected cells; host or cells: Ltk- cells (mouse fibroblast line), membrane preparation
Experimental: as §1

[3] = membranes of Ltk- cells expressing D1, 1 nM [3H] compound of formula III, 1 hour at room temperature, read-out: D1 (Ki)

Row | Compound | Ki [1, 3] [nM] | Ki [1] [nM] | Ki [2] [nM]
1 | CN1CCc2cc(Cl)c3[nH]c(=O)sc3c2[C@H]2c3ccccc3CC[C@@H]21 [Compound 25A] | – | 2.1 | 257
2 | Oc1nc2c(Cl)cc3c(c2[nH]1)[C@H]1c2ccccc2CC[C@@H]1NCC3 [Compound 18A] | – | 16.5 | 3270
3 | Clc1cc2c(c3cn[nH]c13)[C@@H](c1ccccc1)CNCC2 [Compound 6] | 183 | – | 5010
4 | O=c1[nH]c2c(Cl)cc3c(c2s1)[C@H]1c2ccccc2CC[C@@H]1NCC3 [Compound 26A] | – | 6.5 | 661
5 | CN1CCc2cc(Cl)c3nc(O)sc3c2[C@@H](c2ccccc2)C1 [Compound 25B] | 115 | – | 2890
6 | CN1CCc2cc(Cl)c3[nH]c(=S)[nH]c3c2[C@H]2c3ccccc3CC[C@@H]21 [Compound 17A] | – | 40 | 1040
7 | Cc1cc2c3c(cc(Cl)c2[nH]1)CCN(C)[C@H]1CCc2ccccc2[C@H]31 [Compound 8] | – | 24.7 | 232
8 | CN1CCc2cc(Cl)c3[nH]c(O)nc3c2[C@H]2c3ccccc3CC[C@@H]21 [Compound 16A] | – | 7 | 1020
9 | CN1CCc2cc(Cl)c3[nH]nnc3c2[C@H]2c3ccccc3CC[C@@H]21 [Compound 15A] | 146 | – | 1530
10 | CN1CCc2cc(Cl)c3[nH]cnc3c2[C@H]2c3ccccc3CC[C@@H]21 [Compound 13A] | 248 | – | 984

Further lines, with some results ahead:

Row | Ki [1, 3] [nM] | Compound | Ki [1] [nM] | Ki [2] [nM]
11 | 11.3 | O=c1[nH]c2c(Cl)cc3c(c2[nH]1)[C@H]1c2cccc(Br)c2CC[C@@H]1NCC3 [Compound 18C] | – | 648
12 | 1790 | CN1CCc2cc(Cl)c3[nH]c(=S)[nH]c3c2[C@@H](c2ccccc2)C1 [Compound 17B] | – | –
13 | 6.1 | CN1CCc2cc(Cl)c3[nH]c(=O)[nH]c3c2[C@H]2c3cccc(Br)c3CC[C@@H]21 [Compound 16C] | – | 172
14 | 1080 | O=c1[nH]c2c(Cl)cc3c(c2s1)[C@@H](c1ccccc1)CNCC3 [Compound 26B] | – | 3200
15 | 1.9 | CN1CCc2cc(Cl)c3[nH]c(=O)[nH]c3c2[C@H]2c3cccc(-c4ccccc4)c3CC[C@@H]21 [Compound 27] | – | 336
16 | 14 | CN1CCc2cc(Cl)c3[nH]ncc3c2[C@@H](c2ccccc2)C1 [Compound 4] | – | 3550
17 | 1900 | Oc1nc2c(Cl)cc3c(c2[nH]1)[C@@H](c1ccccc1)CNCC3 [Compound 18B] | – | –
18 | 350 | CN1CCc2cc(Cl)c3[nH]c(O)nc3c2[C@@H](c2ccccc2)C1 [Compound 16B] | – | –
